The record followed here is patent publication US10358463B2, “Immunomodulators” (BRISTOL-MYERS SQUIBB COMPANY, priority 2016, dated 2019).

Numbered stars: 1 amine (or outer) side, 2 acyl side, 3 side chain; on linkers, the order of the positions; unused ones are H or OH. Bridge positions count the residues as written; N and C are the ends. Square brackets hold non-standard residues; d marks the D form. Peptide text beside a SMILES is read from it. Trp(4-aza,1-CH2COOH) = N[C@@H](Cc1cn(CC(=O)O)c2cccnc12)C(=O)O; Trp(7-aza,1-CH2COOH) = N[C@@H](Cc1cn(CC(=O)O)c2ncccc12)C(=O)O; X10 = COc1ccc2c(c1)c(C[C@H](N[*:1])C(=O)[*:2])cn2CC(=O)O; X5 = O=C(O)Cn1nc(C[C@H](N[*:1])C(=O)[*:2])c2ccccc21; X2 = O=C(O)Cc1cn(CC(N[*:1])C(=O)[*:2])c2cccnc12; Hyp = O=C(O)[C@@H]1C[C@@H](O)CN1; NMeNle = CCCC[C@H](NC)C(=O)O; NMeA = CN[C@@H](C)C(=O)O; Dab = NCC[C@H](N)C(=O)O; Dap = NC[C@H](N)C(=O)O

The assay has as its target T1, PD-1-Ig binding to PD-L1-TVMV-His (PD-L1-His) (Homo sapiens, UniProt Q9NZQ7).
T1 construct: hPDL1 (19-239)-TVMV-His; TVMV protease cleavage site (C); made in house; host or cells: HEK293T cells
Put plainly: PD-1/PD-L1 Homogenous Time-Resolved Fluorescence (HTRF) binding assay. Conditions: PD-1-Ig (20 nM)/PD-L1-His (10 nM).

T1 sequence (Q9NZQ7 with tags, fused parts or gaps): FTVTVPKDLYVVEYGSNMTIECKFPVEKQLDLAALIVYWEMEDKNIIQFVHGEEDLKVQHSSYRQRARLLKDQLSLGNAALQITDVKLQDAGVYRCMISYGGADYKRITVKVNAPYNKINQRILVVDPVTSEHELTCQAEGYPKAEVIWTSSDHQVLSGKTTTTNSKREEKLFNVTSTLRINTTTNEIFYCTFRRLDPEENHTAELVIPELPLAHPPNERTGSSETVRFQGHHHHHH

`CCCC[C@H]1C(=O)N(C)[C@@H](CCCC)C(=O)N[C@@H](CC(C)C)C(=O)N[C@H](C(=O)NCC(N)=O)CSCC(=O)N[C@@H](Cc2ccc(O)cc2)C(=O)N(C)[C@@H](C)C(=O)N[C@@H](CC(N)=O)C(=O)N2CCC[C@H]2C(=O)N[C@@H](CN)C(=O)N[C@@H](CC(C)C)C(=O)N2C[C@H](O)C[C@H]2C(=O)N[C@@H](Cc2c[nH]c3ccccc23)C(=O)N[C@@H](CCN)C(=O)NC(Cn2cc(CC(=O)O)c3ncccc32)C(=O)N1C` (some centres unmarked) [Example 10003] ({CH2CO}-Y[NMeA]NP[Dap]L[Hyp]W[Dab][X2][NMeNle][NMeNle]LCG-NH2; thioether N-14) displayed an IC50 (range class) of 100 to 990 nM.

For `CCCC[C@H]1C(=O)N(C)[C@@H](CCCC)C(=O)N[C@@H](CC(C)C)C(=O)N[C@H](C(=O)NCC(N)=O)CSCC(=O)N[C@@H](Cc2ccc(O)cc2)C(=O)N(C)[C@@H](C)C(=O)N[C@@H](CC(N)=O)C(=O)N2CCC[C@H]2C(=O)N[C@@H](CN)C(=O)N[C@@H](CC(C)C)C(=O)N2C[C@H](O)C[C@H]2C(=O)N[C@@H](Cc2c[nH]c3ccccc23)C(=O)N[C@@H](CCN)C(=O)N[C@@H](Cc2nn(CC(=O)O)c3ccccc23)C(=O)N1C` [Example 10500] ({CH2CO}-Y[NMeA]NP[Dap]L[Hyp]W[Dab][X5][NMeNle][NMeNle]LCG-NH2; thioether N-14), under “range class”, the IC50 lay within 1 to 9.9 nM.

The compound `CCCC[C@H]1C(=O)N(C)[C@@H](CCCC)C(=O)N[C@@H](CC(C)C)C(=O)N[C@H](C(N)=O)CSCC(=O)N[C@@H](Cc2ccc(O)cc2)C(=O)N(C)[C@@H](C)C(=O)N[C@@H](CC(N)=O)C(=O)N2CCC[C@H]2C(=O)N[C@@H](CN)C(=O)N[C@@H](CC(C)C)C(=O)N2C[C@H](O)C[C@H]2C(=O)N[C@@H](Cc2c[nH]c3ccccc23)C(=O)N[C@@H](CCN)C(=O)N[C@@H](Cc2nn(CC(=O)O)c3ccccc23)C(=O)N1C` [Example 10501] ({CH2CO}-Y[NMeA]NP[Dap]L[Hyp]W[Dab][X5][NMeNle][NMeNle]LC-NH2; thioether N-14) gave an IC50 (range class) of 1 to 9.9 nM.

`CCCC[C@H]1C(=O)N(C)[C@@H](CCCC)C(=O)N[C@@H](CC(C)C)C(=O)N[C@H](C(N)=O)CSCC(=O)N[C@@H](Cc2ccc(O)cc2)C(=O)N(C)[C@@H](C)C(=O)N[C@@H](CC(N)=O)C(=O)N2CCC[C@H]2C(=O)N[C@@H](CN)C(=O)N[C@@H](CC(C)C)C(=O)N2C[C@H](O)C[C@H]2C(=O)N[C@@H](Cc2c[nH]c3ccccc23)C(=O)N[C@@H](CCN)C(=O)N[C@@H](Cc2cn(CC(=O)O)c3cccnc23)C(=O)N1C` [Example 10502] ({CH2CO}-Y[NMeA]NP[Dap]L[Hyp]W[Dab][Trp(4-aza,1-CH2COOH)][NMeNle][NMeNle]LC-NH2; thioether N-14) showed an IC50 (numeric value) of 13 nM.

Take `CCCC[C@H]1C(=O)N(C)[C@@H](CCCC)C(=O)N[C@@H](CC(C)C)C(=O)N[C@H](C(N)=O)CSCC(=O)N[C@@H](Cc2ccc(O)cc2)C(=O)N(C)[C@@H](C)C(=O)N[C@@H](CC(N)=O)C(=O)N2CCC[C@H]2C(=O)N[C@@H](CN)C(=O)N[C@@H](CC(C)C)C(=O)N2C[C@H](O)C[C@H]2C(=O)N[C@@H](Cc2c[nH]c3ccccc23)C(=O)N[C@@H](CCN)C(=O)N[C@@H](Cc2cn(CC(=O)O)c3ccc(OC)cc23)C(=O)N1C` [Example 10503] ({CH2CO}-Y[NMeA]NP[Dap]L[Hyp]W[Dab][X10][NMeNle][NMeNle]LC-NH2; thioether N-14): under “range class”, the IC50 was 1 to 9.9 nM.

In the case of `CCCC[C@H]1C(=O)N(C)[C@@H](CCCC)C(=O)N[C@@H](CC(C)C)C(=O)N[C@H](C(N)=O)CSCC(=O)N[C@@H](Cc2ccc(O)cc2)C(=O)N(C)[C@@H](C)C(=O)N[C@@H](CC(N)=O)C(=O)N2CCC[C@H]2C(=O)N[C@@H](CN)C(=O)N[C@@H](CC(C)C)C(=O)N2C[C@H](O)C[C@H]2C(=O)N[C@@H](Cc2c[nH]c3ccccc23)C(=O)N[C@@H](CCN)C(=O)N[C@@H](Cc2cn(CC(=O)O)c3ncccc23)C(=O)N1C` [Example 10504] ({CH2CO}-Y[NMeA]NP[Dap]L[Hyp]W[Dab][Trp(7-aza,1-CH2COOH)][NMeNle][NMeNle]LC-NH2; thioether N-14), where the note is “range class”, the IC50 lay in the range of 1 to 9.9 nM.

Where the note is “range class”, `CCCC[C@H]1C(=O)N(C)[C@@H](CCCC)C(=O)N[C@@H](CC(C)C)C(=O)N[C@H](C(=O)NCC(N)=O)CSCC(=O)N[C@@H](Cc2ccc(O)cc2)C(=O)N(C)[C@@H](C)C(=O)N[C@@H](CC(N)=O)C(=O)N2CCC[C@H]2C(=O)N[C@@H](CN)C(=O)N[C@@H](CC(C)C)C(=O)N2C[C@H](O)C[C@H]2C(=O)N[C@@H](Cc2c[nH]c3ccccc23)C(=O)N[C@@H](CCN)C(=O)N[C@@H](Cc2cn(CC(=O)O)c3ncccc23)C(=O)N1C` [Example 10505] ({CH2CO}-Y[NMeA]NP[Dap]L[Hyp]W[Dab][Trp(7-aza,1-CH2COOH)][NMeNle][NMeNle]LCG-NH2; thioether N-14) displayed an IC50 of 10 to 99 nM.

The compound `CCCC[C@H]1C(=O)N(C)[C@@H](CCCC)C(=O)N[C@@H](CC(C)C)C(=O)N[C@H](C(=O)NCC(N)=O)CSCC(=O)N[C@@H](Cc2ccc(O)cc2)C(=O)N(C)[C@@H](C)C(=O)N[C@@H](CC(N)=O)C(=O)N2CCC[C@H]2C(=O)N[C@@H](CN)C(=O)N[C@@H](CC(C)C)C(=O)N2C[C@H](O)C[C@H]2C(=O)N[C@@H](Cc2c[nH]c3ccccc23)C(=O)N[C@@H](CCN)C(=O)N[C@@H](Cc2cn(CC(=O)O)c3ccc(OC)cc23)C(=O)N1C` [Example 10506] ({CH2CO}-Y[NMeA]NP[Dap]L[Hyp]W[Dab][X10][NMeNle][NMeNle]LCG-NH2; thioether N-14) showed a 50% inhibitory concentration (IC50) (range class) of 1 to 9.9 nM.
